From patent US9494867B2, “Rinsing liquid for lithography and pattern forming method using same” (AZ ELECTRONIC MATERIALS (LUXEMBOURG) S.A.R.L., priority 2013, dated 2016)

experiment: Storage stability test of rinse solution; assay type: physicochemical; design: key: when the defect number of the test rinse solution is equal to or less than that of the rinse solution of the deionized water, it is evaluated as ‘O’; when the number is more than that of the deionized water, it is evaluated as ‘X’; details: additive concentrations more than 3,000 ppm
Experimental: A rinse solution prepared in a predetermined concentration is filtered through a filter and left at rest at 25° C. for one month. A chemically amplified KrF resist composition AZ DX6270P manufactured by AZ Electronic Materials Manufacturing (Japan) K. K. is spin-coated on a silicon wafer and soft-baked at 120° C. for 90 seconds to form a resist film of 620 nm in thickness. The rinse solution after preservation is applied on the resist film and the wafer is rotated at a very high speed to dry it. The total defect numbers of all defects including gel defects and particle defects on this film are measured using a defect inspection apparatus KLA2360 manufactured by KLA Tencor corporation. The number of defects when the preserved test rinse solution is used as a rinse solution is compared with that when the preserved rinse solution consisting of only a deionized water is used (see Comparative example 1) and when the defect number of the test rinse solution is equal to or less than that of the rinse solution of the deionized water, it is evaluated as ‘O’ and when the number is more than that of the deionized water, it is evaluated as ‘X’.

**Q.** Which Storage stabilities does the source give for `CCOC(O)C#CC(O)OCC` (stereo not shown) [DODD, 3,8-dioxa-5-decyne-4,7-diol, reference compound] here?
**A.** The Storage stabilities was “X”.

experiment: Measurement of maximum dissolution quantity in water; assay type: physicochemical; details: water of 25° C.
Experimental: Different amounts of an additive agent for a rinse solution are added between transparent screws and in each cases water is further added as the total amount of the additive agent and water is made 100 g. These are mixed at 25° C. for 10 hours or more by using a stealer and left at rest for some time at this temperature. The state of dissolution thereof is observed by eyes and the maximum amount of the additive agent wherein insoluble matter is not observed in the solution is defined as a maximum dissolution quantity (ppm).

**Q.** Which “Maximum dissolution quantity of additives in water” value (“Maximum dissolution quantity” below) does the source give for `OCCCCO` [1,4-butanediol, reference compound] here?
**A.** Its value is >10,000 ppm.

**Q.** Which “Maximum dissolution quantity” value does the source give for `OCC#CCO` [BTD, 1,4-butynediol] here?
**A.** Its value is >10,000 ppm.

**Q.** With `OCC1CCC(CO)CC1` (stereo not shown) [CHDM, 1,4-cyclohexanedimethanol, reference compound] as the compound, how does the “Maximum dissolution quantity” value read?
**A.** Its value is >10,000 ppm.

**Q.** With `CC(C)(O)C#CC(C)(C)O` [DMHD, 2,5-dimethyl-3-hexyne-2,5-diol] as the compound, how does the “Maximum dissolution quantity” value read?
**A.** Its value is >10,000 ppm.

**Q.** Which “Maximum dissolution quantity” value does the source give for `CCC(C)(O)C#CC(C)(O)CC` (stereo not shown) [DMOD, 3,6-dimethyl-4-octyn-3,6-diol] here?
**A.** The value was >10,000 ppm.

**Q.** Which “Maximum dissolution quantity” value does the source give for `CCOC(O)C#CC(O)OCC` (stereo not shown) [DODD, 3,8-dioxa-5-decyne-4,7-diol, reference compound] here?
**A.** Its value is >10,000 ppm.

**Q.** With `OCC#CC#CCO` [HXDD, 2,4-hexadiyn-1,6-diol] as the compound, how does the “Maximum dissolution quantity” value read?
**A.** Its value is >10,000 ppm.

**Q.** With `CC(O)C#CC(C)O` (stereo not shown) [HXYD, 3-hexyne-2,5-diol] as the compound, how does the “Maximum dissolution quantity” value read?
**A.** The value was >10,000 ppm.

**Q.** With `OCc1cccc(CO)c1` [MXG, 1,3-benzendimethanol] as the compound, how does the “Maximum dissolution quantity” value read?
**A.** The value was >10,000 ppm.

**Q.** Which “Maximum dissolution quantity” value does the source give for `OCc1ccccc1CO` [OXG, 1,2-benzendimethanol] here?
**A.** The value was >10,000 ppm.

**Q.** For `OCc1ccc(CO)cc1` [PXG, p-xylylene glycol], which “Maximum dissolution quantity” value is on record?
**A.** The value was >10,000 ppm.

experiment: Measurement of surface tension of rinse solution; assay type: physicochemical; details: rinse solution containing 1,000 ppm of the additive
Experimental: A surface tension measurement of a prepared rinse solution was conducted using the surface tensiometer CBVP-Z manufactured by Kyowa interface science Co., LTD.

**Q.** With `CC(O)C=CC(C)O` (stereo not shown) [HXED, 3-hexene-2,5-diol] as the compound, how does the “Surface tension of the rinse solution” value read?
**A.** Its value is 66.5 mN/m.
